According to article PMC10681007, “Targeted Degradation of XIAP is Sufficient and Specific to Induce Apoptosis in MYCN-overexpressing High-risk Neuroblastoma” (Cancer Research Communications, 2023):
Like-named read-outs stand apart in the source and are kept apart here. Starred links: 1 amine or outer side, 2 acyl side, 3 side chain; linkers in the order of their positions; H or OH if unused. Positions of bridges follow the written chain, without caps; N, C: chain ends. Non-standard residues stand in square brackets, D forms with d. Residues, ends and D or L forms follow the SMILES beside them. Chains are numbered I, II in the order given. Hexamethylenediamine = C(CCCN[*:2])CCN[*:1]; Dip = N[C@H](C(=O)O)C(c1ccccc1)c1ccccc1; Chg = N[C@H](C(=O)O)C1CCCCC1; NMeA = CN[C@@H](C)C(=O)O

Assays:
BE(2)-C = experiment: RealTime-Glo MT cell viability assay; assay type: cell-based, Human
Experimental: (§1) Cell viability was measured in real time using RealTime-Glo MT Cell Viability Assay as according to manufacturer's instructions from Promega. Cells were seeded at 1 × 10^4 cells per well and treated with a range of doses of indicated antagonists, followed by continuous bioluminescence reading every 24 hours for 3 days using luminescent plate reader, Varioskan (SkanIT software). IC50 was determined using GraphPad Prism software.
(§2) To determine their efficacy in neuroblastoma, a panel of neuroblastoma cell lines including neuroblastoma patient-derived cell lines and noncancerous normal tissue-derived cell lines were treated with increasing doses of each antagonist (0–100 µmol/L), followed by real-time measurement of cell viability every 24 for 72 hours.

CHP212 = experiment: RealTime-Glo MT cell viability assay; assay type: cell-based, Human
Experimental: as §1, §2

IMR-32 = experiment: RealTime-Glo MT cell viability assay; assay type: cell-based, Human
Experimental: as §1, §2

KELLY = experiment: RealTime-Glo MT cell viability assay; assay type: cell-based, Human
Experimental: as §1, §2

NB1 = experiment: RealTime-Glo MT cell viability assay; assay type: cell-based, Human
Experimental: as §1, §2

[1] = test system: NBL-07-0317 patient-derived neuroblastoma cells; experiment: RealTime-Glo MT cell viability assay; assay type: cell-based, Human
Experimental: as §1, §2

[2] = test system: NBL01-1116 patient-derived neuroblastoma cells; experiment: RealTime-Glo MT cell viability assay; assay type: cell-based, Human
Experimental: as §1, §2

[3] = test system: NBL16-0118 patient-derived neuroblastoma cells; experiment: RealTime-Glo MT cell viability assay; assay type: cell-based, Human
Experimental: as §1, §2

[4] = test system: NBL27-0218A patient-derived neuroblastoma cells; experiment: RealTime-Glo MT cell viability assay; assay type: cell-based, Human
Experimental: as §1, §2

NLF = experiment: RealTime-Glo MT cell viability assay; assay type: cell-based, Human
Experimental: as §1, §2

SK-N-AS = experiment: RealTime-Glo MT cell viability assay; assay type: cell-based, Human
Experimental: as §1, §2

SK-N-SH = experiment: RealTime-Glo MT cell viability assay; assay type: cell-based, Human
Experimental: as §1, §2

endogenous XIAP = molecular target: T1, endogenous XIAP (Homo sapiens, UniProt P98170); experiment: Degradation of endogenous luciferase-tagged XIAP (HiBiT/LgBiT), real-time luminescence; assay type: cell-based; conditions: for DC50: 8 hours, read-out: DC50, degradation curve at 8h
T1 construct: knock-in a bioluminescent tag at endogenous loci of XIAP; endogenous in cells; host or cells: BE(2)-C and KELLY cells, CRISPR/Cas9 HiBiT knock-in, stably transfected with LgBiT vector (Promega)
Experimental: B, Degradation profiles of endogenous XIAP in response to A4 or BV6 treatment of neuroblastoma cells, BE(2)-C (top) and KELLY (bottom). Cells were treated with increasing dose of A4 or BV6 and luminescence was measured continuously in real time for 2 hours. Luminescence values were normalized to DMSO vehicle control and degradation profiles were generated using GraphPad Prism. Values were expressed as mean ± SD of three independent experiments conducted in duplicates.
(A) Degradation profiles of endogenous XIAP in response to A4 treatment of neuroblastoma cells, BE(2)-C and KELLY. (B) Degradation profiles of endogenous XIAP in response to BV6 treatment of neuroblastoma cells, BE(2)-C and KELLY. […] Cells were treated with increasing dose of A4 or BV6 and luminescence was measured continuously in real-time for 2 hours (A4) or 8 hours (BV6), respectively. Luminescence values were normalized to DMSO vehicle control and degradation profiles were generated using GraphPad Prism. Values were expressed as mean ± SD of three independent experiments.

HS5 cells = experiment: Apoptosis (cleaved PARP/caspase-3, Caspase-Glo 3/7); assay type: cell-based; conditions: 10 µmol/L
Experimental: The determination of caspase-3/7 levels as an indication for apoptosis activity was performed using a Caspase-Glo 3/7 assay kit from Promega according to manufacturer's instructions. Cells were seeded at 1 × 10^4 cells per well and treated with 10 µmol/L of IAP antagonists for various indicated timings, followed by bioluminescence measurement using luminescent plate reader, Tecan Infinite200 Pro. The activity of apoptosis was also measured by flow cytometry using the Dead Cell Apoptosis Kit with Annexin V FITC and PI (Thermo Fisher Scientific) according to manufacturer's instructions. Cells harvested from lentiviral infection were subjected to Annexin V (2.5 µL) and PI (40 ng/mL, 0.5 µL) staining, followed by flow cytometric analysis using BD LSRFortessa cell analyzer with excitation/emission spectra of 494 nm/518 nm for FITC and 535 nm/617 nm for PI.
FIGURE 2 Specific loss of XIAP expression, not c-IAP1, is required for mediating apoptosis in high-risk neuroblastoma cells. A, Summary of IAP antagonists’ efficacy in killing neuroblastoma cells. […] C, Graphical representation showing the fold change of caspase-3/7 activity relative to vehicle controls after treatment with 10 µmol/L of either A4, B3, or BV6 at indicated timings (data were expressed as mean ± SD of three independent experiments conducted in duplicates; *, P < 0.05). […]

T1 sequence (P98170 whole entry): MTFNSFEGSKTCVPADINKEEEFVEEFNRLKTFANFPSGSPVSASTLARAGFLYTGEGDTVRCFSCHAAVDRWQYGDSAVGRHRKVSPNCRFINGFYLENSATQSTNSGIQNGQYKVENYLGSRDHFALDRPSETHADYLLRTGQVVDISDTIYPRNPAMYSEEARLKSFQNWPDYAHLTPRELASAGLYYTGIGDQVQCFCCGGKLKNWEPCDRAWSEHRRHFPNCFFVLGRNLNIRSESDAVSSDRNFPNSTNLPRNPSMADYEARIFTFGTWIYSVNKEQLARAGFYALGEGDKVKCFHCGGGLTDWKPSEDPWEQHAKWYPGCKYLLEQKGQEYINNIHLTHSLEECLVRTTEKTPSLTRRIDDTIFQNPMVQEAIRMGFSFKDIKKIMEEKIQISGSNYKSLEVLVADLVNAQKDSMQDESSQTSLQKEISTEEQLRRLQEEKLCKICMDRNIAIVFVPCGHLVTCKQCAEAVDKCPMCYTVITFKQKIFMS

CN[C@@H](C)C(=O)N[C@H](C(=O)N1CCC[C@H]1C(=O)N[C@H](C(=O)NCCCCCCNC(=O)[C@@H](NC(=O)[C@@H]1CCCN1C(=O)[C@@H](NC(=O)[C@H](C)NC)C1CCCCC1)C(c1ccccc1)c1ccccc1)C(c1ccccc1)c1ccccc1)C1CCCCC1 [BV6] (I: H-[NMeA][Chg]P[Dip] / II: H-[NMeA][Chg]P[Dip]; linker I:C-II:C via Hexamethylenediamine)
IC50 (BE(2)-C; 24 hours): 21.2 µM | IC50 (BE(2)-C; 48 hours): 16.8 µM | IC50 (BE(2)-C; 72 hours): 16.5 µM | IC50 (CHP212; CHP212, 24 hours): 10.4 µM | IC50 (CHP212; CHP212, 48 hours): 9.9 µM | IC50 (CHP212; CHP212, 72 hours): 9.3 µM | IC50 (IMR-32; IMR-32, 24 hours): 7.4 µM | IC50 (IMR-32; IMR-32, 48 hours): 5.8 µM | IC50 (IMR-32; IMR-32, 72 hours): 4.3 µM | IC50 (KELLY; 24 hours): 13.5 µM | IC50 (KELLY; 48 hours): 12.9 µM | IC50 (KELLY; 72 hours): 10.1 µM | IC50 (NB1; NB1, 24 hours): 7 µM | IC50 (NB1; NB1, 48 hours): 5.5 µM | IC50 (NB1; NB1, 72 hours): 3.8 µM | IC50 ([1]; NBL-07-0317, 24 hours): 8.1 µM | IC50 ([1]; NBL-07-0317, 48 hours): 5.5 µM | IC50 ([1]; NBL-07-0317, 72 hours): 4.8 µM | IC50 ([2]; NBL01-1116, 24 hours): 14.5 µM | IC50 ([2]; NBL01-1116, 48 hours): 9.3 µM | IC50 ([2]; NBL01-1116, 72 hours): 8.5 µM | IC50 ([3]; NBL16-0118, 24 hours): 5.1 µM | IC50 ([3]; NBL16-0118, 48 hours): 2.8 µM | IC50 ([3]; NBL16-0118, 72 hours): 2.3 µM | IC50 ([4]; 24 hours): 5.9 µM | IC50 ([4]; 48 hours): 3.6 µM | IC50 ([4]; 72 hours): 2.6 µM | IC50 (NLF; 24 hours): 7.4 µM | IC50 (NLF; 48 hours): 3.8 µM | IC50 (NLF; 72 hours): 3.7 µM | IC50 (SK-N-AS; 24 hours): 4.6 µM | IC50 (SK-N-AS; 48 hours): 3.2 µM | IC50 (SK-N-AS; 72 hours): 2.6 µM | IC50 (SK-N-SH; 24 hours): 12.4 µM | IC50 (SK-N-SH; 48 hours): 10.5 µM | IC50 (SK-N-SH; 72 hours): 9.7 µM | degradation of XIAP (endogenous XIAP; 2 hours' exposure, BE(2)-C and KELLY): minimal degradation of XIAP | DC50 (endogenous XIAP; BE(2)-C): 44.5 µM | DC50 (endogenous XIAP; KELLY): 32 µM | apoptosis (HS5 cells): significant apoptosis
